Source: patent US6653309B1, “Inhibitors of IMPDH enzyme technical field of the invention” (Vertex Pharmaceuticals Incorporated, priority 1999, dated 2003)

Biological target: IMPDH human type II (Homo sapiens, UniProt P12268)
Assay: IMPDH Activity Inhibition Assay
Type: biochemical
Conditions: spectrophotometric NADH formation at 340 nm, 37° C., tight-binding equation of Henderson
Description: IMP dehydrogenase activity was assayed following an adaptation of the method first reported by Magasanik. [B. Magasanik et al., J. Biod. Chem., 226, p. 339 (1957), the disclosure of which is herein incorporated by reference]. Enzyme activity was measured spectrophotometrically, by monitoring the increase in absorbance at 340 nm due to the formation of NADH (ε340 is 6220 M^−1 cm^−1). The reaction mixture contained 0.1 M Tris pH 8.0, 0.1 M KCl, 3 mM EDTA, 2 mM DTT, […] and enzyme (IMPDH human type II) at a concentration of 15 to 50 nM. This solution is incubated at 37° C. for 10 minutes. The reaction is started by adding NAD to a final concentration of […] and the initial rate is measured by following the linear increase in absorbance at 340 nm for 10 minutes. For reading in a standard spectrophotometer (path length 1 cm) the final volume in the cuvette is 1.0 ml. The assay has also been adapted to a 96 well microtiter plate format; in this case the concentrations of all the reagents remain the same and the final volume is decreased to 200 μl.
For the analysis of inhibitors, the compound in question is dissolved in DMSO to a final concentration of 20 mM and added to the initial assay mixture for preincubation with the enzyme at a final volume of 2-5% (v/v). The reaction is started by the addition of NAD, and the initial rates measured as above. Ki determinations are made by measuring the initial, velocities in the presence of varying amounts of inhibitor and fitting the data using the tight-binding equation of Henderson (Henderson, P. J. F. (1972) Biochem. J. 127, 321].

Compared with `COc1ccccc1NC(=O)c1cc2ccccc2cc1O` [Compound 100], `CCOc1ccccc1NC(=O)c1cc2ccccc2cc1O` [Compound 167] is higher in Ki: under 10 µM for the first, 10 to 20 µM for the second.

`CCCC(=O)Oc1cc2ccccc2cc1C(=O)Nc1ccccc1OC` [Compound 101] and `CCCCC(=O)Oc1cc2ccccc2cc1C(=O)Nc1ccccc1OC` [Compound 148] fall in the same range of Ki: 10 to 20 µM for the first, 10 to 20 µM for the second.

`COc1cc(NC(=O)c2cccc(CNC(=O)O[C@H]3CCOC3)c2)ccc1-c1cnco1` [Compound 102] and `COc1cc(NC(=O)c2cccc(CCNC(=O)O[C@H]3CCOC3)c2)ccc1-c1cnco1` [Compound 109] cannot be ordered by Ki: under 10 µM for the first, under 10 µM for the second.

First: COc1ccccc1NC(=O)c1cc2cc(Br)ccc2cc1OC(C)=O [Compound 104]
Second: CCC(=O)Oc1cc2ccc(Br)cc2cc1C(=O)Nc1ccccc1OC [Compound 127]
The Ki of the first is higher: 10 to 20 µM for the first, under 10 µM for the second. The second binds more tightly here.

`COc1ccccc1N(C)C(=O)c1cc2ccccc2cc1O` [Compound 105] and `C=CCN(C(=O)c1cc2ccccc2cc1O)c1ccccc1OC` [Compound 106] fall in the same range of Ki: 10 to 20 µM for the first, 10 to 20 µM for the second.

`COc1ccccc1N(Cc1ccccc1)C(=O)c1cc2ccccc2cc1O` [Compound 107] and `COc1ccc(-c2ccccc2)cc1NC(=O)c1cc2ccccc2cc1O` [Compound 154] fall in the same range of Ki: 10 to 20 µM for the first, 10 to 20 µM for the second.

`COc1ccccc1NC(=O)c1ccccc1OC` [Compound 108] and `COc1ccccc1NC(=O)c1cccc(OC)c1O` [Compound 157] fall in the same range of Ki: 10 to 20 µM for the first, 10 to 20 µM for the second.

`COc1ccccc1NC(=O)c1ccc2ccccc2c1` [Compound 110] and `COc1ccccc1NC(=O)c1cc2ccccc2cc1N` [Compound 142] fall in the same range of Ki: 10 to 20 µM for the first, 10 to 20 µM for the second.

`COc1ccccc1NC(=O)c1cc2ccccc2cc1OC(=O)c1ccccc1` [Compound 111] and `COc1ccccc1C(=O)Nc1cc2ccccc2cc1OC(=O)c1ccccc1OC` [Compound 138] cannot be ordered by Ki: under 10 µM for the first, under 10 µM for the second.

`COc1ccccc1NC(=O)c1cc2ccccc2cc1OC(=O)C(C)(C)C` [Compound 112] and `COc1ccccc1NC(=O)c1cc2ccccc2cc1NC(=O)C(F)(F)F` [Compound 137] fall in the same range of Ki: 10 to 20 µM for the first, 10 to 20 µM for the second.

First: CCCC(=O)Oc1cc2ccccc2cc1C(=O)Nc1ccc(C#N)c(OC)c1 [Compound 113]
Second: CCCC(=O)Oc1cc2ccccc2cc1C(=O)Nc1cccc(OC)c1 [Compound 116]
The Ki of the first is lower: under 10 µM for the first, over 20 µM for the second.

`CCCC(=O)Oc1cc2ccccc2cc1C(=O)Nc1ccc(-c2cnco2)c(OC)c1` [Compound 114] and `COc1cc(NC(=O)c2cc3ccccc3cc2O)ccc1-c1cnco1` [Compound 126] cannot be ordered by Ki: under 10 µM for the first, under 10 µM for the second.

`COc1ccccc1NCc1cc2cc(Br)ccc2cc1O` [Compound 115] and `COc1ccccc1N(C)Cc1cc2cc(Br)ccc2cc1O` [Compound 151] cannot be ordered by Ki: under 10 µM for the first, under 10 µM for the second.

Compared with `CCCC(=O)Oc1cc2ccccc2cc1C(=O)Nc1ccc(OC)cc1` [Compound 117], `CCCC(=O)Oc1cc2ccccc2cc1C(=O)Nc1ccc(C)cc1` [Compound 118] is lower in Ki: over 20 µM for the first, 10 to 20 µM for the second.

First: COc1cccc(NC(=O)c2cc3ccccc3cc2O)c1 [Compound 119]
Second: CCOc1cccc(NC(=O)c2cc3ccccc3cc2O)c1 [Compound 168]
The Ki of the first is higher: over 20 µM for the first, 10 to 20 µM for the second.

`COc1ccc(NC(=O)c2cc3ccccc3cc2O)cc1` [Compound 120] and `Cc1ccc(NC(=O)c2cc3ccccc3cc2O)cc1` [Compound 121] fall in the same range of Ki: 10 to 20 µM for the first, 10 to 20 µM for the second.

`Cc1cccc(NC(=O)c2cc3ccccc3cc2O)c1` [Compound 122] and `O=C(Nc1cccc(Br)c1)c1cc2ccccc2cc1O` [Compound 130] fall in the same range of Ki: 10 to 20 µM for the first, 10 to 20 µM for the second.

`O=C(Nc1cccc(C(F)(F)F)c1)c1cc2ccccc2cc1O` [Compound 123] and `O=C(Nc1ccc(C(F)(F)F)cc1)c1cc2ccccc2cc1O` [Compound 124] cannot be ordered by Ki: under 10 µM for the first, under 10 µM for the second.

`COc1cc(NC(=O)c2cc3ccccc3cc2O)ccc1C#N` [Compound 125] and `N#Cc1cccc(NC(=O)c2cc3ccccc3cc2O)c1` [Compound 145] fall in the same range of Ki: 10 to 20 µM for the first, 10 to 20 µM for the second.

`O=C(Nc1ccccc1C(F)(F)F)c1cc2ccccc2cc1O` [Compound 128] and `O=C(Nc1ccccc1OC(F)(F)F)c1cc2ccccc2cc1O` [Compound 135] fall in the same range of Ki: 10 to 20 µM for the first, 10 to 20 µM for the second.

`O=C(Nc1ccccc1Br)c1cc2ccccc2cc1O` [Compound 129] and `Cc1ccccc1NC(=O)c1cc2ccccc2cc1O` [Compound 132] fall in the same range of Ki: 10 to 20 µM for the first, 10 to 20 µM for the second.

First: O=C(Nc1ccc(Br)cc1)c1cc2ccccc2cc1O [Compound 131]
Second: O=C(Nc1ccc(Cl)cc1)c1cc2ccccc2cc1O [Compound 161]
The Ki of the first is higher: 10 to 20 µM for the first, under 10 µM for the second.

Compared with `COc1ccccc1NC(=O)c1ccccc1` [Compound 133], `COc1ccccc1NC(=O)c1ccccc1O` [Compound 147] is lower in Ki: 10 to 20 µM for the first, under 10 µM for the second.

`COc1ccccc1NC(=O)c1ccc2c(c1)OCO2` [Compound 134] and `COc1ccc(C(=O)Nc2ccccc2OC)c(O)c1` [Compound 150] fall in the same range of Ki: 10 to 20 µM for the first, 10 to 20 µM for the second.

`O=C(Nc1ccc(OC(F)(F)F)cc1)c1cc2ccccc2cc1O` [Compound 136] and `O=C(Nc1ccc(F)cc1)c1cc2ccccc2cc1O` [Compound 166] fall in the same range of Ki: 10 to 20 µM for the first, 10 to 20 µM for the second.

Compared with `COc1ccccc1C(=O)Nc1cc2ccccc2cc1O` [Compound 139], `O=C(Nc1ccccc1Cl)c1cc2ccccc2cc1O` [Compound 155] is higher in Ki: under 10 µM for the first, 10 to 20 µM for the second.

`C=CCOc1cc2ccc(Br)cc2cc1C(=O)Nc1ccccc1OC` [Compound 140] and `CCCCC(=O)Oc1cc2ccc(Br)cc2cc1C(=O)Nc1ccccc1OC` [Compound 153] cannot be ordered by Ki: under 10 µM for the first, under 10 µM for the second.

First: COc1ccccc1NC(=O)c1cc2cc(Br)ccc2cc1OCc1ccccc1 [Compound 141]
Second: COc1ccccc1NC(=O)c1ccc2ccccc2c1O [Compound 146]
The Ki of the first is lower: under 10 µM for the first, 10 to 20 µM for the second.

First: O=C(Nc1cccc(OC(F)(F)F)c1)c1ccc2ccccc2c1 [Compound 143]
Second: O=C(Nc1cccc(F)c1)c1cc2ccccc2cc1O [Compound 163]
The Ki of the first is lower: under 10 µM for the first, 10 to 20 µM for the second. The first binds more tightly here.

`N#Cc1ccccc1NC(=O)c1cc2ccccc2cc1O` [Compound 144] and `O=C(Nc1ccccc1F)c1cc2ccccc2cc1O` [Compound 162] fall in the same range of Ki: 10 to 20 µM for the first, 10 to 20 µM for the second.

`COc1ccccc1N(C)C(=O)c1cc2cc(Br)ccc2cc1O` [Compound 149] and `COc1ccc(C(N)=O)cc1NC(=O)c1cc2ccccc2cc1O` [Compound 165] fall in the same range of Ki: 10 to 20 µM for the first, 10 to 20 µM for the second.

First: COc1ccccc1NC(=O)c1cccc(-c2ccccc2)c1O [Compound 152]
Second: CSc1ccccc1NC(=O)c1cc2ccccc2cc1O [Compound 169]
The Ki of the first is higher: 10 to 20 µM for the first, under 10 µM for the second. The second binds more tightly here.

`O=C(Nc1cccc(Cl)c1)c1cc2ccccc2cc1O` [Compound 156] and `CSc1cccc(NC(=O)c2cc3ccccc3cc2O)c1` [Compound 173] fall in the same range of Ki: 10 to 20 µM for the first, 10 to 20 µM for the second.

`CCS(=O)(=O)c1ccc(OC)c(NC(=O)c2cc3ccccc3cc2O)c1` [Compound 159] and `COc1ccc(S(=O)(=O)C(F)F)cc1NC(=O)c1cc2ccccc2cc1O` [Compound 160] fall in the same range of Ki: 10 to 20 µM for the first, 10 to 20 µM for the second.

`CCC(C)c1ccc(OC)c(NC(=O)c2cc3ccccc3cc2O)c1` (stereo not drawn) [Compound 164] and `COc1cc(NC(=O)c2cc3ccccc3cc2O)c(OC)cc1Cl` [Compound 170] cannot be ordered by Ki: under 10 µM for the first, under 10 µM for the second.

First: COc1cc(OC)c(NC(=O)c2cc3ccccc3cc2O)cc1Cl [Compound 171]
Second: COc1cc2c(cc1NC(=O)c1cc3ccccc3cc1O)oc1ccccc12 [Compound 172]
The Ki of the first is higher: 10 to 20 µM for the first, under 10 µM for the second. The second binds more tightly here.
